According to ChEMBL document CHEMBL1148592, “Synthesis and antiviral evaluation of cyclic and acyclic 2-methyl-3-hydroxy-4-pyridinone nucleoside derivatives” (J Med Chem, 2006):

Experiments:
Human alphaherpesvirus 1 [1] = assay: Antiviral activity against HSV1 TK- in HEL cells; format: functional, organism-based; details: Human alphaherpesvirus 1, TK-
CCRF-CEM = assay: Cytotoxicity in CEM cells; format: functional; details: Homo sapiens
[2] = tested on: Human immunodeficiency virus 2; assay: Antiviral activity against HIV2 ROD in CEM cells; format: functional, organism-based; details: Human immunodeficiency virus 2, ROD, CCRF-CEM
Human alphaherpesvirus 2 = assay: Antiviral activity against HSV2 G in HEL cells; format: functional, organism-based; details: Human alphaherpesvirus 2, G
Human alphaherpesvirus 1 [3] = assay: Antiviral activity against HSV1 KOS in HEL cells; format: functional, organism-based; details: Human alphaherpesvirus 1, KOS
[4] = tested on: Human immunodeficiency virus 1; assay: Antiviral activity against HIV1 IIIB in CEM cells; format: functional, organism-based; details: Human immunodeficiency virus 1, 3B, CCRF-CEM
[5] = Minimum toxic concentration in HEL cells; format: toxicity, cell-based; details: human, read-out: MTC

Compound	EC50 (Human alphaherpesvirus 1 [1])	CC50 (CCRF-CEM)	EC50 [2]	EC50 (Human alphaherpesvirus 2)	EC50 (Human alphaherpesvirus 1 [3])	EC50 [4]	MCC [5]
Cc1c(O)c(=O)ccn1[C@H]1CC[C@H](CO)O1	> 177 µM	84 µM	> 90 µM	> 177 µM	177 µM	> 90 µM	> 900 µM
Nc1nc2c(ncn2COC(CO)CO)c(=O)[nH]1 [GANCICLOVIR]			> 50 µM	0.06 µM		> 50 µM	
Cc1c(O)c(=O)ccn1[C@H]1CS[C@@H](CO)O1 (racemic)	80 µM	188 µM	> 80 µM	81 µM	32 µM	> 80 µM	> 400 µM
Nc1ccn(C[C@@H](CO)OCP(=O)(O)O)c(=O)n1 [CIDOFOVIR]			> 10 µM		0.57 µM	> 10 µM	> 350 µM
Cc1c(OCc2ccccc2)c(=O)ccn1[C@H]1CC[C@@H](CO)O1	> 200 µM	> 150 µM	> 150 µM	> 200 µM	> 200 µM	> 150 µM	> 900 µM
Cc1c(O)c(=O)ccn1CCOCP(=O)(O)O		> 50 µM	> 50 µM	> 200 µM	> 200 µM	> 50 µM	> 200 µM
Nc1nc2c(ncn2COCCO)c(=O)[nH]1 [ACYCLOVIR]	86.6 µM		> 50 µM	1.76 µM	1.12 µM	> 50 µM	> 1700 µM
Cc1c(O)c(=O)ccn1[C@@H]1CC[C@@H](CO)O1	> 177 µM	101 µM	> 50 µM	> 177 µM	177 µM	> 50 µM	> 900 µM
Cc1cn([C@H]2C[C@H](N=[N+]=[N-])[C@@H](CO)O2)c(=O)[nH]c1=O [ZIDOVUDINE]		> 100 µM	0.0055 µM			0.0055 µM	
Cc1c(O)c(=O)ccn1[C@@H]1CS[C@@H](CO)O1 (racemic)	95 µM	188 µM	> 80 µM	90 µM	40 µM	> 80 µM	> 400 µM
Cc1c(O)c(=O)ccn1[C@H]1CC[C@@H](CO)O1	500 µM	> 50 µM	> 50 µM	> 900 µM	40 µM	> 50 µM	> 900 µM
